Among the data in patent publication US20240018145A1, “[…]-DEPENDENT EN[…] TREATING OR […]” (priority 2020, published 2024) are EC50 values, retold here.

For this test, the system named is FLU A (PR/8/34). Briefly: Flu A Neuraminidase Antiviral Assay. The class given is cell-based.

Where two headings read alike, the source gives them in different places.

As a reminder, the EC50 is the concentration needed to bring the measured effect to its halfway point. The low end stands for higher potency in that assay, the high end for lower potency in that assay. `CN1C(=O)c2c(O)c(=O)ccn2N2C1CCCC2(C)c1ccccc1F` (single isomer, unassigned) [Compound 24B, 1-(2-fluorophenyl)-7-hydroxy-1,5-dimethyl-1,2,3,4,4a,5-hexahydrodipyrido[1,2-b:2′,1′-f][1,2,4]triazine-6,8-dione] displayed a concentration giving a half-maximal response (EC50) of 1240 nM.

`CN1C(=O)c2c(O)c(=O)ccn2N2C(c3ccccc3)C(CC(F)F)CCC12` (single isomer, unassigned) [Compound 129D, 2-(2,2-difluoroethyl)-7-hydroxy-5-methyl-1-phenyl-1,2,3,4,4a,5-hexahydrodipyrido[1,2-b:2′,1′-f][1,2,4]triazine-6,8-dione] had an EC50 of 92 nM. On the same count and under the same terms, next, `CN1C(=O)c2c(O)c(=O)ccn2N2C(c3ccccc3Cl)C(CCO)CCC12` (stereo not shown) [Compound 66B, 1-(2-chlorophenyl)-7-hydroxy-2-(2-hydroxyethyl)-5-methyl-1,2,3,4,4a,5-hexahydrodipyrido[1,2-b:2′,1′-f][1,2,4]triazine-6,8-dione]: 182 nM. Same read-out and setting: next, `Cc1ccccc1C1C(CCC(F)(F)F)CCC2N(C)C(=O)c3c(O)c(=O)ccn3N12` (single isomer, unassigned) [Compound 95B, 7-hydroxy-5-methyl-1-(o-tolyl)-2-(3,3,3-trifluoropropyl)-1,2,3,4,4a,5-hexahydrodipyrido[1,2-b:2′,1′-f][1,2,4]triazine-6,8-dione]: 7.5 nM; `CN1C(=O)c2c(O)c(=O)ccn2N2C(c3ccccc3Br)C(CC(F)(F)F)CCC12` (single isomer, unassigned) [Compound 89B, 1-(2-bromophenyl)-7-hydroxy-5-methyl-2-(2,2,2-trifluoroethyl)-1,2,3,4,4a,5-hexahydrodipyrido[1,2-b:2′,1′-f][1,2,4]triazine-6,8-dione]: 2.4 nM. The compound `CC(C)O[C@H]1CC[C@H]2N(C)C(=O)c3c(O)c(=O)ccn3N2[C@@H]1c1ccccc1` [Compound 155, (1R,2S,4aS)-7-hydroxy-2-isopropoxy-5-methyl-1-phenyl-1,2,3,4,4a,5-hexahydrodipyrido[1,2-b:2′,1′-f][1,2,4]triazine-6,8-dione] displayed an EC50 (MDCK, 48 h) of 185 nM. Compound `CN1C(=O)c2c(O)c(=O)ccn2N2C1CCCC2(C)c1ccccc1F` (single isomer, unassigned) [Compound 24A, 1-(2-fluorophenyl)-7-hydroxy-1,5-dimethyl-1,2,3,4,4a,5-hexahydrodipyrido[1,2-b:2′,1′-f][1,2,4]triazine-6,8-dione] had an EC50 of 2.1 nM. Still for that read-out and setting: as for `CN1C(=O)c2c(O)c(=O)ccn2N2C1CCCC2(C)c1ncc(F)cc1F` (single isomer, unassigned) [Compound 46A, 1-(3,5-difluoropyridin-2-yl)-7-hydroxy-1,5-dimethyl-1,2,3,4,4a,5-hexahydrodipyrido[1,2-b:2′,1′-f][1,2,4]triazine-6,8-dione], the figure is 40.3 nM; as for `CCN1C(=O)c2c(O)c(=O)ccn2N2C1CCCC2(C)c1cccc(C)n1` (single isomer, unassigned) [Compound 53B, 5-ethyl-7-hydroxy-1-methyl-1-(6-methylpyridin-2-yl)-1,2,3,4,4a,5-hexahydrodipyrido[1,2-b:2′,1′-f][1,2,4]triazine-6,8-dione], 8.3 nM; as for `CCN1C(=O)c2c(O)c(=O)ccn2N2C1CCCC2(C)c1cccc(C2CC2)n1` (single isomer, unassigned) [Compound 55A, 1-(6-cyclopropylpyridin-2-yl)-5-ethyl-7-hydroxy-1-methyl-1,2,3,4,4a,5-hexahydrodipyrido[1,2-b:2′,1′-f][1,2,4]triazine-6,8-dione], greater than 810 nM. The same measure, in the same setting: next, `CN1C(=O)c2c(O)c(=O)ccn2N2C(c3ccccc3)C(CC3CC3(F)F)CCC12` (single isomer, unassigned) [Compound 114C, 2-((2,2-difluorocyclopropyl)methyl)-7-hydroxy-5-methyl-1-phenyl-1,2,3,4,4a,5-hexahydrodipyrido[1,2-b:2′,1′-f][1,2,4]triazine-6,8-dione]: 5.3 nM. Still for that read-out and setting: as for `Cc1cccnc1C1(C)CCCC2N(CC(F)(F)F)C(=O)c3c(O)c(=O)ccn3N21` (single isomer, unassigned) [Compound 44A, 7-hydroxy-1-methyl-1-(3-methylpyridin-2-yl)-5-(2,2,2-trifluoroethyl)-1,2,3,4,4a,5-hexahydrodipyrido[1,2-b:2′,1′-f][1,2,4]triazine-6,8-dione], the figure is greater than 8100 nM; as for `COCCN1C(=O)c2c(O)c(=O)ccn2N2C(c3ccc(F)cc3)CCCC12` (single isomer, unassigned) [Compound 4B, 1-(4-fluorophenyl)-7-hydroxy-5-(2-methoxyethyl)-1,2,3,4,4a,5-hexahydrodipyrido[1,2-b:2′,1′-f][1,2,4]triazine-6,8-dione], greater than 8100 nM; as for `CN1C(=O)c2c(O)c(=O)ccn2N2C1CCCC2(C)c1ccccc1` (single isomer, unassigned) [Compound 18A, 7-hydroxy-1,5-dimethyl-1-phenyl-1,2,3,4,4a,5-hexahydrodipyrido[1,2-b:2′,1′-f][1,2,4]triazine-6,8-dione], 7.1 nM. With `CN1C(=O)c2c(O)c(=O)ccn2N2C(c3ccccc3)C(C3CC3(F)F)CCC12` (single isomer, unassigned) [Compound 105B, 2-(2,2-difluorocyclopropyl)-7-hydroxy-5-methyl-1-phenyl-1,2,3,4,4a,5-hexahydrodipyrido[1,2-b:2′,1′-f][1,2,4]triazine-6,8-dione], the EC50 was greater than 810 nM. Same read-out and setting: next, `Cc1ccccc1C1C(CCC(F)(F)F)CCC2N(C)C(=O)c3c(O)c(=O)ccn3N12` (single isomer, unassigned) [Compound 95A, 7-hydroxy-5-methyl-1-(o-tolyl)-2-(3,3,3-trifluoropropyl)-1,2,3,4,4a,5-hexahydrodipyrido[1,2-b:2′,1′-f][1,2,4]triazine-6,8-dione]: 137 nM.

The compound `Cc1cccc(C2(C)CCCC3N(CC(F)F)C(=O)c4c(O)c(=O)ccn4N32)n1` (single isomer, unassigned) [Compound 54A, 5-(2,2-difluoroethyl)-7-hydroxy-1-methyl-1-(6-methylpyridin-2-yl)-1,2,3,4,4a,5-hexahydrodipyrido[1,2-b:2′,1′-f][1,2,4]triazine-6,8-dione] showed an EC50 greater than 810 nM. Compound `CN1C(=O)c2c(O)c(=O)ccn2N2C(c3ccccc3)C(CCC3CC3)CCC12` (single isomer, unassigned) [Compound 115A, 2-(2-cyclopropylethyl)-7-hydroxy-5-methyl-1-phenyl-1,2,3,4,4a,5-hexahydrodipyrido[1,2-b:2′,1′-f][1,2,4]triazine-6,8-dione] yielded an EC50 greater than 8100 nM. The same measure, in the same setting: as for `CN1C(=O)c2c(O)c(=O)ccn2N2C(c3ccccc3)C(CCC3CC3)CCC12` (single isomer, unassigned) [Compound 115D, 2-(2-cyclopropylethyl)-7-hydroxy-5-methyl-1-phenyl-1,2,3,4,4a,5-hexahydrodipyrido[1,2-b:2′,1′-f][1,2,4]triazine-6,8-dione], the figure is 6.9 nM; as for `CN1C(=O)c2c(O)c(=O)ccn2N2C1CCC2(C)c1ccccc1Cl` (single isomer, unassigned) [Compound 63A, 1-(2-chlorophenyl)-6-hydroxy-1,4-dimethyl-2,3,3a,4-tetrahydro-1H-pyrido[2,1-f]pyrrolo[1,2-b][1,2,4]triazine-5,7-dione], greater than 8100 nM. On the same count and under the same terms, as for `Cc1ccccc1C1C(CC(F)(F)F)CCC2N(C)C(=O)c3c(O)c(=O)ccn3N12` (single isomer, unassigned) [Compound 120B, 7-hydroxy-5-methyl-1-(o-tolyl)-2-(2,2,2-trifluoroethyl)-1,2,3,4,4a,5-hexahydrodipyrido[1,2-b:2′,1′-f][1,2,4]triazine-6,8-dione], the figure is 1.9 nM; as for `CCN1C(=O)c2c(O)c(=O)ccn2N2C1CCCC2(C)c1cccc(C)n1` (single isomer, unassigned) [Compound 53A, 5-ethyl-7-hydroxy-1-methyl-1-(6-methylpyridin-2-yl)-1,2,3,4,4a,5-hexahydrodipyrido[1,2-b:2′,1′-f][1,2,4]triazine-6,8-dione], greater than 810 nM; as for `CCN1C(=O)c2c(O)c(=O)ccn2N2C(c3ccccc3C)C(CC(F)(F)F)CCC12` (single isomer, unassigned) [Compound 93A, 5-ethyl-7-hydroxy-1-(o-tolyl)-2-(2,2,2-trifluoroethyl)-1,2,3,4,4a,5-hexahydrodipyrido[1,2-b:2′,1′-f][1,2,4]triazine-6,8-dione], 475 nM. `CN1C(=O)c2c(O)c(=O)ccn2N2C(c3c(F)cccc3F)CCCC12` (single isomer, unassigned) [Compound 7A, 1-(2,6-difluorophenyl)-7-hydroxy-5-methyl-1,2,3,4,4a,5-hexahydrodipyrido[1,2-b:2′,1′-f][1,2,4]triazine-6,8-dione]: the half-maximal effective concentration (EC50) was greater than 8100 nM.

`CC(C)CC1CC(c2ccccc2)N2C(C1)N(C)C(=O)c1c(O)c(=O)ccn12` (single isomer, unassigned) [Compound 130A, 7-hydroxy-3-isobutyl-5-methyl-1-phenyl-1,2,3,4,4a,5-hexahydrodipyrido[1,2-b:2′,1′-f][1,2,4]triazine-6,8-dione]: the EC50 (MDCK, 48 h) was greater than 8100 nM. `CN1C(=O)c2c(O)c(=O)ccn2N2C(c3cccc(F)c3)CCCC12` (single isomer, unassigned) [Compound 10B, 1-(3-fluorophenyl)-7-hydroxy-5-methyl-1,2,3,4,4a,5-hexahydrodipyrido[1,2-b:2′,1′-f][1,2,4]triazine-6,8-dione] came in with an EC50 of 86.5 nM. Still for that read-out and setting: next, `CN1C(=O)c2c(O)c(=O)ccn2N2C1CCC1(CCC(C(F)(F)F)CC1)C2c1ccccc1` (single isomer, unassigned) [Compound 73C, 7′-hydroxy-5′-methyl-1′-phenyl-4-(trifluoromethyl)-3′,4′,4a′,5′-tetrahydro-1′H-spiro[cyclohexane-1,2′-dipyrido[1,2-b:2′,1′-f][1,2,4]triazine]-6′,8′-dione]: 105 nM. Still for that read-out and setting: next, `CCN1C(=O)c2c(O)c(=O)ccn2N2C(c3ccccc3)C(c3ccc(F)c(F)c3)CCC12` (single isomer, unassigned) [Compound 94A, 2-(3,4-difluorophenyl)-5-ethyl-7-hydroxy-1-phenyl-1,2,3,4,4a,5-hexahydrodipyrido[1,2-b:2′,1′-f][1,2,4]triazine-6,8-dione]: 397 nM.
